We go through 5 compounds from patent publication US7074598B2, “Detection of vancomycin-resistant enterococcus spp” (Mayo Foundation for Medical Education and Research, priority 2002, dated 2006).

For one assay, the system named is Enterococcus. In words: culture and susceptibility results of anal swab specimens (VRE screen media). The assay is classed as cell-based. As for the experimental part:
An additional 56 specimens obtained from anal swabs were analyzed using the LIGHTCYCLER™ assay and were compared to a culture method using a VRE screen media. The anal swabs were prepared for amplification as described above. The LIGHTCYCLER™ assay detected more positive specimens than did culture, and is therefore more sensitive than culture. A high rate of false negative results from rectal swab culture has been previously confirmed in the literature (Clin. Infect. Dis., 2002, 34:167–172).

Assay [1] has as its system Enterococcus isolates from anal swabs. As to the kind of experiment: MIC of isolates cultured from anal swabs of hospitalized patients. In kind it is cell-based. The method, then:
Four hundred ninety seven anal swabs collected from hospitalized patients were evaluated for the presence of vanA, vanB and vanB-2/3 genes by the LIGHTCYCLER™ vancomycin-resistant enterococci assay and by conventional culture methods. 482 of the 497 specimens were negative for the van genes and 12 were positive (9 vanA; 0 vanB; 3 vanB-2/3) by the LIGHTCYCLER™ vancomycin-resistant enterococci assay and the conventional culture screen using an 8 μg/ml Enterococcosel plate. […] The MIC values for all of the other isolates were susceptible to vancomycin at ≦8 μg/ml. An additional 21 specimens (4 vanA; 5 vanB; 12 vanB-2/3) were positive by the LIGHTCYCLER™ vancomycin-resistant enterococci assay but were negative by culture. Three of these patient specimens were culture positive with a repeat swab collection. Six of the positive specimens were separate specimens from the same patients. Due to the large number of vanB genotypes missed by culture and picked up with the LIGHTCYCLER™ vancomycin-resistant enterococci assay, the concentration of vancomycin in the Enterococcesel plates was decreased to 6 μg/ml, which is the usual laboratory standard (Manual of Clinical Microbiology, 7th Ed., 1999).

For assay [2], the system named is vanB strains of vancomycin-resistant enterococci. The following applies: vanB phenotypes (vanB, vanB-2/3); cited from earlier work.
Assay [3] relates to vanA strains of vancomycin-resistant enterococci. The following applies: cited from earlier work; for glycopeptide resistance phenotype: vanA phenotype.
Assay [4] relates to clinical isolates of Enterococcus. In words: agar dilution antimicrobial susceptibility testing (MIC) of clinical isolates of Enterococcus. The assay is classed as cell-based. The method, then: One hundred clinical isolates of Enterococcus (E. casseliflavus/flavescens [n=10], E. faecalis [n=34], E. faecium [n=43], E. avium [n=1], E. gallinarum [n=11], and E. raffinosus [n=1]) were grown on blood agar plates and evaluated for the presence of vanA, vanB, and vanB 2/3 genes using a rapid LIGHTCYCLER™ vancomycin-resistant enteroccoci assay. The LIGHTCYCLER™ vancomycin-resistant enteroccoci assay differentiates the three van genes based on the temperature range over which hybridization probes melt from the target DNA (e.g., as determined by a melting curve). […] The MIC values for all of the other isolates were susceptible to vancomycin at ≦8 μg/ml.

Assay [5] relates to vanC phenotype of vancomycin-resistant enterococci. As to conditions: cited from earlier work.
Where [6] appears, read: Enterococcus cultured from anal swab specimen #52 (LightCycler VanA).
Where [7] appears, read: Enterococcus cultured from anal swab specimen #235 (LightCycler VanA).
Setting [8] is: Enterococcus cultured from anal swab specimen #244 (LightCycler VanA).
The mark [9] stands for this setting: Enterococcus cultured from anal swab specimen #279 (LightCycler VanB-2/3).
[10] abbreviates: Enterococcus cultured from anal swab specimen #286 (LightCycler VanB-2/3 weak).
The mark [11] stands for this setting: Enterococcus cultured from anal swab specimen #296 (LightCycler Negative).
[12] abbreviates: Enterococcus cultured from anal swab specimen #304 (LightCycler Negative).
Setting [13] is: Enterococcus cultured from anal swab specimen #419 (LightCycler VanA).
Where [14] appears, read: Enterococcus cultured from anal swab specimen #425 (LightCycler Negative).

Pennicillin: the “Susceptibility Results” value is given as “S” in the assay with Enterococcus (setting [6]); “Amp, Van, Pen, Gent = R” in the assay on Enterococcus (setting [7]); “R” in the assay with Enterococcus (setting [8]); “R” with Enterococcus (setting [9]); “Amp, Van, Pen, Gent = S” in the assay on Enterococcus (setting [10]); “Amp, Van, Pen, Gent = S” in the assay on Enterococcus (setting [11]). The “Susceptibility Results” value in the assay with Enterococcus (setting [12]) is on record as “S”; with Enterococcus (setting [13]), “R”; in the assay on Enterococcus (setting [14]) it was “S”.
`CC1(C)S[C@@H]2[C@H](NC(=O)[C@H](N)c3ccccc3)C(=O)N2[C@H]1C(=O)O` [Amp, Ampicillan]: the “Susceptibility Results” value with Enterococcus (setting [6]) is on record as “S”; in the assay with Enterococcus (setting [7]), “Amp, Van, Pen, Gent = R”; in the assay on Enterococcus (setting [8]), “R”; in the assay with Enterococcus (setting [9]), “R”; with Enterococcus (setting [10]) it was “Amp, Van, Pen, Gent = S”; in the assay on Enterococcus (setting [11]), “Amp, Van, Pen, Gent = S”. Further, the “Susceptibility Results” value with Enterococcus (setting [12]) is “S”; in the assay on Enterococcus (setting [13]), “R”; with Enterococcus (setting [14]), “S”.
With Gentamycin, the “Susceptibility Results” value with Enterococcus (setting [6]) is “S”; in the assay with Enterococcus (setting [7]) it was “Amp, Van, Pen, Gent = R”; with Enterococcus (setting [8]) it was “S”; with Enterococcus (setting [9]), “S”; in the assay with Enterococcus (setting [10]), “Amp, Van, Pen, Gent = S”; with Enterococcus (setting [11]), “Amp, Van, Pen, Gent = S”. Further, the entries for the “Susceptibility Results” value in the assay with Enterococcus (setting [12]), in the assay with Enterococcus (setting [13]) and with Enterococcus (setting [14]) were “S”, “I” and “S”, respectively.
`CN[C@H](CC(C)C)C(=O)N[C@H]1C(=O)N[C@@H](CC(N)=O)C(=O)N[C@H]2C(=O)N[C@H]3C(=O)N[C@H](C(=O)N[C@H](C(=O)O)c4cc(O)cc(O)c4-c4cc3ccc4O)[C@H](O)c3ccc(c(Cl)c3)Oc3cc2cc(c3O[C@@H]2O[C@H](CO)[C@@H](O)[C@H](O)[C@H]2O[C@H]2C[C@](C)(N)[C@H](O)[C@H](C)O2)Oc2ccc(cc2Cl)[C@H]1O` [vancomycin]: the MIC is no more than 8 mg/L in assay [1] (all of the other isolates from anal swabs, susceptible); no less than 64 mg/L in assay [1] (vanA and vanB positive isolates from anal swabs, all resistant); no more than 8 mg/L in assay [4] (all of the other isolates (van gene negative), susceptible); no less than 64 mg/L in assay [4] (vanA, vanB, and vanB-2/3 positive isolates (43 of 100 clinical isolates), all resistant). Besides, the figures for the glycopeptide resistance phenotype entry in assay [2], in assay [3] and in assay [5] were “variable vancomycin-resistance”, “high levels of resistance” and “low levels of vancomycin-resistance”, respectively. Besides, in assay [3] (vanA strains, typical level), the “minimum inhibitory concentration (MIC)” value was greater than 64 mg/L. The “Susceptibility Results” value with Enterococcus (setting [6]) is reported as “I”; in the assay with Enterococcus (setting [7]), “Amp, Van, Pen, Gent = R”; in the assay on Enterococcus (setting [8]) it was “R”; in the assay with Enterococcus (setting [9]) it was “S”; in the assay on Enterococcus (setting [10]), “Amp, Van, Pen, Gent = S”; with Enterococcus (setting [11]), “Amp, Van, Pen, Gent = S”. The “Susceptibility Results” value was “I” in the assay on Enterococcus (setting [12]), “R” with Enterococcus (setting [13]) and “I” in the assay with Enterococcus (setting [14]).
With teicoplanin, the results for the glycopeptide resistance phenotype entry in assay [2], in assay [3] and in assay [5] were “susceptible”, “high levels of resistance” and “susceptible”, respectively.
